Results published in patent US11168073B2, “3,3-difluoroallylamines or salts thereof and pharmaceutical compositions comprising the same” (YUHAN CORPORATION, priority 2018, dated 2021).
Where a name gives a salt, the structure may show the parent alone. Read-outs that look alike come from different tables or passages of the source.

Key:
Type in all cases: biochemical
[1] = target: T1, recombinant human MAO-A (monoamine oxidase-A) (Homo sapiens, UniProt P21397); assay: Activity evaluation on recombinant human MAO-A (Amplex Red/HRP-coupled assay, 0.5 mM tyramine substrate); settings: read-out: Inhibitory Activity (IC50, nM) MAO-A
T1 construct: purchased Sigma-Aldrich
T1 sequence (P21397 1-527): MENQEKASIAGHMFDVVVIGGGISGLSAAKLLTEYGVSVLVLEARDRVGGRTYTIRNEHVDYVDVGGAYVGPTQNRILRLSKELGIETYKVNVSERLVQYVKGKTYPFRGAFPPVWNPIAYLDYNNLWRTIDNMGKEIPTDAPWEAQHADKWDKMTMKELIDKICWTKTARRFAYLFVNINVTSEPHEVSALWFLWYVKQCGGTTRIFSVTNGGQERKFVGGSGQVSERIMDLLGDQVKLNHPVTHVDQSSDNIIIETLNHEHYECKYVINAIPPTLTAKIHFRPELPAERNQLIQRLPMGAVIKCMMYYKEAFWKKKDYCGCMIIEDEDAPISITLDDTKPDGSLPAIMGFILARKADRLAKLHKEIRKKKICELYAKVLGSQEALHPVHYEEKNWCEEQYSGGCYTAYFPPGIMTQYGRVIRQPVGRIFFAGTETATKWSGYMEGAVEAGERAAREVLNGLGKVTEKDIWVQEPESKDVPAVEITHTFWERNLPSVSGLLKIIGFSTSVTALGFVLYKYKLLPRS
Method in brief: (§1)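 Compounds preincubated 30 min at 37 °C with enzyme in 50 mM sodium phosphate pH 7.4 (final DMSO <1%, 8-point 1:3 dilutions); reaction started with 200 uM Amplex Red, 1 U/mL HRP and substrate (MAO-A 0.5 mM tyramine, MAO-B 1 mM benzylamine, DAO 1 mM putrescine). Resorufin fluorescence (ex 544/em 590 nm) followed over 1-2 h; IC50 from four-parameter logistic fit.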

[2] = target: T2, recombinant human DAO (diamine oxidase) (Homo sapiens, UniProt P19801); assay: Activity evaluation on recombinant human DAO (Amplex Red/HRP-coupled assay, 1 mM putrescine substrate); settings: read-out: Inhibitory Activity (IC50, nM) DAO
T2 construct: purchased R&D systems
T2 sequence (P19801 20-751): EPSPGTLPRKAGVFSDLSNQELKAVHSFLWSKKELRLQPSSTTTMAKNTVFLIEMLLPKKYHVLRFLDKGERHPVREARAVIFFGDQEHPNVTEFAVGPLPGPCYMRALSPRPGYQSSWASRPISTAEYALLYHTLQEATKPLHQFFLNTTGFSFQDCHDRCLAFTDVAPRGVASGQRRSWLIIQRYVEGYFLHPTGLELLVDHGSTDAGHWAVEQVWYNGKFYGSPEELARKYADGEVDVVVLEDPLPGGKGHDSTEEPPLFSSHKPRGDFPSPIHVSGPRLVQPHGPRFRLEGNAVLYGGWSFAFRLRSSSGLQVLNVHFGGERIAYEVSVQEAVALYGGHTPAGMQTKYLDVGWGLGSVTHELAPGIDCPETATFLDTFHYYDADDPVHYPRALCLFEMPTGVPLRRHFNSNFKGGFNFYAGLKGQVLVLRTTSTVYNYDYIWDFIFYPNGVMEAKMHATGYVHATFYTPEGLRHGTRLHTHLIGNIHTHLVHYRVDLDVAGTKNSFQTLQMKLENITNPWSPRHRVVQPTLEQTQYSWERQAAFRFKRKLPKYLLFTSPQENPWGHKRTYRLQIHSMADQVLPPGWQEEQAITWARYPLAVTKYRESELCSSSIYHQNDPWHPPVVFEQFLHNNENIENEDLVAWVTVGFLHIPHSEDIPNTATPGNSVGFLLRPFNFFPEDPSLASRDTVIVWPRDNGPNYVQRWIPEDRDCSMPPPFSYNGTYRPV
Method in brief: as §1

recombinant human VAP-1 = target: T3, recombinant human VAP-1 (Homo sapiens, UniProt Q16853); assay: Activity evaluation on recombinant human VAP-1 (Amplex Red/HRP-coupled hydrogen peroxide assay, benzylamine substrate); settings: read-out: Inhibitory Activity (IC50, nM) human VAP-1
T3 construct: purchased R&D systems
T3 sequence (Q16853 1-763): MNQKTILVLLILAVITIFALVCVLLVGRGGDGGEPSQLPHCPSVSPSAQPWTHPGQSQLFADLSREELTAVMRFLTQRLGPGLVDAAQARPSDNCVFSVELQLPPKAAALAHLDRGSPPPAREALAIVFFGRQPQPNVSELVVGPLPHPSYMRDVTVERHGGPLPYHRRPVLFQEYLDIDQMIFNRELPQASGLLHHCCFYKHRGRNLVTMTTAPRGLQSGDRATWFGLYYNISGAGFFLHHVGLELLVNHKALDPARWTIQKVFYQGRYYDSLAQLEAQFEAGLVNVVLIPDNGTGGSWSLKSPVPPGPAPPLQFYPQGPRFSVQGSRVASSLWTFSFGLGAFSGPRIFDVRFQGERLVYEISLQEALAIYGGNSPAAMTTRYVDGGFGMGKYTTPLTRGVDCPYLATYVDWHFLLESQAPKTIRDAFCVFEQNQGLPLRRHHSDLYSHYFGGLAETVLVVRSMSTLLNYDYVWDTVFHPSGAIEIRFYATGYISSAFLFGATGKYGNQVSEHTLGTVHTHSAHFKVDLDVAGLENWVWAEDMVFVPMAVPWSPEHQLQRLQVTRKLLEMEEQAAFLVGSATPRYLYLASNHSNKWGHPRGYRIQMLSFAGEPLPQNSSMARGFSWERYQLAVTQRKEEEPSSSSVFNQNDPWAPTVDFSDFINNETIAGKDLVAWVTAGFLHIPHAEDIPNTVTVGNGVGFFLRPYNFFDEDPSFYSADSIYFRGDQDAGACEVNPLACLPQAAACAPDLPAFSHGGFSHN
Method in brief: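 Recombinant human VAP-1 in 50 mM sodium phosphate pH 7.4 preincubated 30 min at 37 °C with compound (8-point 1:3 series, <1% DMSO), then 1 mM benzylamine, 200 uM Amplex Red, 1 U/mL HRP added. H2O2-derived resorufin fluorescence (ex 544/em 590) followed 1–2 h; IC50 from four-parameter fit of rate inhibition.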

[3] = target: T4, recombinant human MAO-B (monoamine oxidase-B) (Homo sapiens, UniProt P27338); assay: Activity evaluation on recombinant human MAO-B (Amplex Red/HRP-coupled assay, 1 mM benzylamine substrate); settings: read-out: Inhibitory Activity (IC50, nM) MAO-B
T4 construct: purchased Sigma-Aldrich
T4 sequence (P27338 1-520): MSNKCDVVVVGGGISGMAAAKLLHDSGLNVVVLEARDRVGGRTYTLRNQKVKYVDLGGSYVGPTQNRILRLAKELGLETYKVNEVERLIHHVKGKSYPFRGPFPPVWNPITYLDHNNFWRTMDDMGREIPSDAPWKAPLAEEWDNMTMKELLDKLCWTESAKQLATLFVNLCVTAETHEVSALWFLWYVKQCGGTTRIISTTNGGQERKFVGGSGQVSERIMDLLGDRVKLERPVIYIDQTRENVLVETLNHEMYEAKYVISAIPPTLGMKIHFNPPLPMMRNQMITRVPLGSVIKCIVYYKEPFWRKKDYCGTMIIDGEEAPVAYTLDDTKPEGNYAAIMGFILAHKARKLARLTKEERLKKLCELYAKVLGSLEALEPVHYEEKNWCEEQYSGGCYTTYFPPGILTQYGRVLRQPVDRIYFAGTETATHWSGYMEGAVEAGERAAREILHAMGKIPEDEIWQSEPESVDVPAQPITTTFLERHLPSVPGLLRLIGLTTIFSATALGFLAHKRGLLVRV
Method in brief: as §1

[4] = recombinant human VAP-1, 30 min preincubation at 37° C., 1 mM benzylamine
[5] = recombinant human VAP-1, benzylamine substrate

Row | Structure (SMILES) | IC50 ([1]; 0.5 mM tyramine) | IC50 ([2]; 1 mM putrescine) | IC50 (recombinant human VAP-1; [4]) | IC50 ([3]; 1 mM benzylamine) | IC50 ([1]; 0.5 mM tyramine substrate) | IC50 ([2]; 1 mM putrescine substrate) | IC50 (recombinant human VAP-1; [5]) | IC50 ([3]; 1 mM benzylamine substrate)
1 | Cc1cc(Br)cnc1-n1cnn(CC(CN)=C(F)F)c1=O [Example 11, 2-[2-(aminomethyl)-3,3-difluoro-allyl]-4-(5-bromo-3-methyl-2-pyridyl)-1,2,4-triazol-3-one Trifluoroacetate] | > 100000 nM | > 100000 nM | 1.1 nM | 57000 nM |  |  |  | 
2 | CCn1cc(-c2cnc(-n3cnn(CC(CN)=C(F)F)c3=O)c(C)c2)cn1 [Example 75, 2-[2-(aminomethyl)-3,3-difluoro-allyl]-4-[5-(1-ethylpyrazol-4-yl)-3-methyl-2-pyridyl]-1,2,4-triazol-3-one Trifluoroacetate] | > 100000 nM | 20000 nM | 0.7 nM | > 100000 nM |  |  |  | 
3 | Cc1cc(-c2ccc(S(=O)(=O)N(C)C)cc2)cnc1-n1cnn(CC(CN)=C(F)F)c1=O [Example 238, 4-[6-[1-[2-(aminomethyl)-3,3-difluoro-allyl]-5-oxo-1,2,4-triazol-4-yl]-5-methyl-3-pyridyl]-N,N-dimethyl-benzenesulfonamide trifluoroacetate] |  |  |  |  | > 100000 nM | 310 nM | 0.14 nM | 1800 nM
4 | CCn1cc(-c2cccc(-n3cnn(CC(CN)=C(F)F)c3=O)n2)cn1 [Example 53, 2-[2-(aminomethyl)-3,3-difluoro-allyl]-4-[6-(1-ethylpyrazol-4-yl)-2-pyridyl]-1,2,4-triazol-3-one Trifluoroacetate] | > 100000 nM | 1710 nM | 1.3 nM | > 100000 nM |  |  |  | 
5 | NCC(Cn1ncn(-c2cccc(-c3ccc(C(=O)N4CCOCC4)cc3)n2)c1=O)=C(F)F [Example 214, 2-[2-(aminomethyl)-3,3-difluoro-allyl]-4-[6-[4-(morpholine-4-carbonyl)phenyl]-2-pyridyl]-1,2,4-triazol-3-one Trifluoroacetate] |  |  |  |  | > 100000 nM | 940 nM | 1.7 nM | > 100000 nM
6 | NCC(Cn1ncn(Cc2ccc(-c3ccc(N4CCNCC4)cc3)cc2)c1=O)=C(F)F [Example 266, 2-[2-(aminomethyl)-3,3-difluoro-allyl]-4-[[4-(4-piperazin-1-ylphenyl)phenyl]methyl]-1,2,4-triazol-3-one Ditrifluoroacetate] |  |  |  |  | > 100000 nM | 330 nM | 9.1 nM | > 100000 nM
7 | NCC(Cn1ncn(Cc2cc(-c3ccc4c(c3)COC(=O)N4)cs2)c1=O)=C(F)F [Example 191, 6-[5-[[1-[2-(aminomethyl)-3,3-difluoro-allyl]-5-oxo-1,2,4-triazol-4-yl]methyl]-3-thienyl]-1,4-dihydro-3,1-benzoxazin-2-one Trifluoroacetate] |  |  |  |  | > 100000 nM | 4200 nM | 0.3 nM | 44000 nM
8 | CC(=O)Nc1nc2ccc(-c3ccc(Cn4cnn(CC(CN)=C(F)F)c4=O)s3)cc2s1 [Example 131, N-[6-[5-[[1-[2-(aminomethyl)-3,3-difluoro-allyl]-5-oxo-1,2,4-triazol-4-yl]methyl]-2-thienyl]-1,3-benzothiazol-2-yl]acetamide trifluoroacetate] | 7800 nM | > 100000 nM | 0.4 nM | 12000 nM |  |  |  | 
9 | NCC(Cn1ncn(Cc2cc(-c3ccc(C(F)(F)F)nc3)cs2)c1=O)=C(F)F [Example 148, 2-[2-(aminomethyl)-3,3-difluoro-allyl]-4-[[4-[6-(trifluoromethyl)-3-pyridyl]-2-thienyl]methyl]-1,2,4-triazol-3-one Trifluoroacetate] | > 100000 nM | 6300 nM | 0.7 nM | 8700 nM |  |  |  | 
10 | NCC(Cn1ncn(-c2ccc(F)cc2)c1=O)=C(F)F [Example 1, 2-[2-(aminomethyl)-3,3-difluoro-allyl]-4-(4-fluorophenyl)-1,2,4-triazol-3-one Trifluoroacetate] | > 100000 nM | > 10000 nM | 2 nM | 39000 nM |  |  |  | 
11 | CC(=O)N1CC=C(c2ccc(Cn3cnn(CC(CN)=C(F)F)c3=O)s2)CC1 [Example 125, 2-[2-(aminomethyl)-3,3-difluoro-allyl]-4-[[5-(1-acetyl-3,6-dihydro-2H-pyridin-4-yl)-2-thienyl]methyl]-1,2,4-triazol-3-one Trifluoroacetate] | > 100000 nM | > 100000 nM | 2.5 nM | > 100000 nM |  |  |  | 
12 | CN1C(=O)CCc2cc(-c3cccc(Cn4cnn(CC(CN)=C(F)F)c4=O)c3)ccc21 [Example 276, 6-[3-[[1-[2-(aminomethyl)-3,3-difluoro-allyl]-5-oxo-1,2,4-triazol-4-yl]methyl]phenyl]-1-methyl-3,4-dihydroquinolin-2-one Trifluoroacetate] |  |  |  |  | > 100000 nM | 3080 nM | 0.5 nM | 2250 nM
13 | CCn1cc(-c2ccnc(-n3cnn(CC(CN)=C(F)F)c3=O)c2)cn1 [Example 60, 2-[2-(aminomethyl)-3,3-difluoro-allyl]-4-[4-(1-ethylpyrazol-4-yl)-2-pyridyl]-1,2,4-triazol-3-one Trifluoroacetate] | > 100000 nM | 810 nM | 1.3 nM | > 100000 nM |  |  |  | 
